{
  "source": "paper PMC4573335",
  "about": "(Biochemistry, 2015)",
  "target": "T1, hALAS2 (human erythroid-specific 5-aminolevulinate synthase) (Homo sapiens, UniProt P22557)",
  "T1 sequence (P22557 80-587)": "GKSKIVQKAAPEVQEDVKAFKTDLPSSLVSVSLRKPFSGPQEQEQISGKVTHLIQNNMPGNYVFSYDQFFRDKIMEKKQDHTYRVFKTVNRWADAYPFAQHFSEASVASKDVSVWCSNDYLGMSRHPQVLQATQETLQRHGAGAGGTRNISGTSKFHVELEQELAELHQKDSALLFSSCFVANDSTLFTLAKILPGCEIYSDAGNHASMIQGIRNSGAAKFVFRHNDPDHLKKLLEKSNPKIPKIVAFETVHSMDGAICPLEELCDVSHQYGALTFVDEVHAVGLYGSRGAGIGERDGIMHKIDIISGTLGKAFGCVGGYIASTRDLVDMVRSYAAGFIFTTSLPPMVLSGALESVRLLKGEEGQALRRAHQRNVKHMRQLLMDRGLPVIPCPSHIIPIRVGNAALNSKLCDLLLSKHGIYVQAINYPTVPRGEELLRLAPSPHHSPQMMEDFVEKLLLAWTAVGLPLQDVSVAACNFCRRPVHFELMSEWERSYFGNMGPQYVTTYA",
  "experiment": "absorption spectroscopy, A420/A330 ratio",
  "assay_type": "binding",
  "details": "PLP holoenzyme",
  "data": [
    {"smiles": "NCC(=O)O", "note": "[glycine]", "values": [
      {"measurement": "absorption spectroscopy, A420/A330 ratio (PLP-glycine aldimine)", "value": "In all cases, the A420/A330 ratio was increased upon reaction with glycine"}
    ]}
  ]
}
